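Results reflect a 48-hour exposure of cells in 96-well plates to compound at five concentrations. At the GI50, growth is halved.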 The source made the active and inactive calls. No stated cut-off is given here; in the data, active = GI50 up to about 1.1 µM and inactive = higher.
What was measured:
Experiment in all cases: DTP human tumour cell line panel, 48 h
A549 = tested on: A549
ACHN = tested on: ACHN
BT-549 = tested on: BT-549
CAKI-1 = tested on: CAKI-1
HL-60 = tested on: HL-60
MDA-MB-435 = tested on: MDA-MB-435
NCI-H460 = tested on: NCI-H460
NCI-H522 = tested on: NCI-H522
OVCAR-5 = tested on: OVCAR-5
RPMI-8226 = tested on: RPMI-8226
RXF 393 = tested on: RXF 393
SF-268 = tested on: SF-268
SK-MEL-2 = tested on: SK-MEL-2
SK-MEL-5 = tested on: SK-MEL-5
TK-10 = tested on: TK-10
U-251 = tested on: U-251
UACC-257 = tested on: UACC-257
SK-OV-3 = tested on: SK-OV-3
MCF7 = tested on: MCF7

Measured: GI50

Cc1cc(OCC(=O)O)c(Cl)cc1Cl
inactive: A549 > 100 µM | ACHN > 100 µM | BT-549 > 100 µM | CAKI-1 > 100 µM | HL-60 > 100 µM | MDA-MB-435 > 100 µM | NCI-H460 > 100 µM | NCI-H522 > 100 µM | OVCAR-5 > 100 µM | RPMI-8226 81.3 µM | RXF 393 > 100 µM | SF-268 > 100 µM | SK-MEL-2 > 100 µM | SK-MEL-5 > 100 µM | TK-10 > 100 µM | U-251 > 100 µM | UACC-257 > 100 µM

Oc1c(Cl)cc2cc1-c1cc(cc(Cl)c1O)CCc1c(cc(Cl)c(O)c1Cl)-c1cc(Cl)c(c(Cl)c1O)/C=C\2
inactive: A549 10.6 µM | ACHN 13.7 µM | BT-549 16 µM | HL-60 5.61 µM | MDA-MB-435 8.02 µM | NCI-H460 4.42 µM | OVCAR-5 10.8 µM | RPMI-8226 22.1 µM | RXF 393 15.2 µM | SF-268 8.43 µM | SK-MEL-2 8.81 µM | SK-MEL-5 8.17 µM | SK-OV-3 9.16 µM | U-251 11.6 µM | UACC-257 13.6 µM

O=C1Cc2c([nH]c3ccccc23)C2(CC3CCCCN13)OCCO2 (configuration not stated)
inactive: A549 > 100 µM | ACHN > 100 µM | BT-549 > 100 µM | CAKI-1 > 100 µM | MCF7 > 100 µM | MDA-MB-435 > 100 µM | NCI-H460 > 100 µM | OVCAR-5 > 100 µM | RPMI-8226 > 100 µM | RXF 393 29.2 µM | SF-268 > 100 µM | SK-MEL-2 > 100 µM | SK-MEL-5 > 100 µM | SK-OV-3 > 100 µM | TK-10 > 100 µM | U-251 > 100 µM | UACC-257 > 100 µM

Clc1ccc(C2ON=C(c3ccccc3)N2C23CC4CC(CC(C4)C2)C3)cc1Cl (configuration not stated)
inactive: A549 > 10 µM | ACHN > 10 µM | BT-549 > 10 µM | CAKI-1 > 10 µM | MCF7 > 10 µM | MDA-MB-435 > 10 µM | NCI-H460 > 10 µM | NCI-H522 > 10 µM | OVCAR-5 > 10 µM | RPMI-8226 > 10 µM | RXF 393 > 10 µM | SF-268 > 10 µM | SK-MEL-2 > 10 µM | SK-MEL-5 > 10 µM | SK-OV-3 > 10 µM | TK-10 > 10 µM | U-251 > 10 µM | UACC-257 > 10 µM

CC1(C)C(=O)C2(OS(=O)(=O)C(F)(F)F)CCC1C2 (configuration not stated)
inactive: A549 > 100 µM | ACHN > 100 µM | BT-549 > 100 µM | CAKI-1 > 100 µM | HL-60 > 100 µM | MCF7 > 100 µM | MDA-MB-435 > 100 µM | NCI-H460 > 100 µM | OVCAR-5 > 100 µM | RPMI-8226 > 100 µM | RXF 393 > 100 µM | SF-268 > 100 µM | SK-MEL-2 > 100 µM | SK-MEL-5 > 100 µM | SK-OV-3 > 100 µM | TK-10 > 100 µM | U-251 > 100 µM | UACC-257 > 100 µM

COC(CO[Si](C)(C)N[Si](C)(C)OCC(OC)c1ccccc1)c1ccccc1 (configuration not stated)
inactive: A549 > 100 µM | ACHN > 100 µM | BT-549 > 100 µM | CAKI-1 > 100 µM | HL-60 > 100 µM | MCF7 > 100 µM | MDA-MB-435 > 100 µM | NCI-H460 > 100 µM | OVCAR-5 > 100 µM | RPMI-8226 > 100 µM | RXF 393 > 100 µM | SK-MEL-2 > 100 µM | SK-MEL-5 > 100 µM | SK-OV-3 > 100 µM | TK-10 > 100 µM | U-251 > 100 µM | UACC-257 > 100 µM

CCOP(=O)(OCC)/C(=C\n1c(=S)[nH]c2cc(C)ccc21)C(=O)OC
inactive: A549 > 100 µM | ACHN > 100 µM | BT-549 > 100 µM | CAKI-1 > 100 µM | HL-60 42.6 µM | MCF7 > 100 µM | MDA-MB-435 > 100 µM | NCI-H460 > 100 µM | OVCAR-5 > 100 µM | RXF 393 > 100 µM | SF-268 > 100 µM | SK-MEL-2 > 100 µM | SK-MEL-5 > 100 µM | SK-OV-3 > 100 µM | TK-10 > 100 µM | U-251 > 100 µM | UACC-257 > 100 µM

O=C1CCC2(CC1CCSc1ccccc1)OCCO2 (configuration not stated)
inactive: A549 > 100 µM | ACHN > 100 µM | CAKI-1 > 100 µM | HL-60 95.1 µM | MCF7 > 100 µM | MDA-MB-435 > 100 µM | NCI-H460 > 100 µM | NCI-H522 > 100 µM | OVCAR-5 > 100 µM | RPMI-8226 > 100 µM | RXF 393 > 100 µM | SF-268 > 100 µM | SK-MEL-2 > 100 µM | SK-MEL-5 88.5 µM | SK-OV-3 > 100 µM | TK-10 > 100 µM | U-251 > 100 µM | UACC-257 > 100 µM

O=C1CCCC2=C1CC1=C(CCCC1=O)N2c1ccccc1C(=O)O
inactive: A549 > 100 µM | ACHN > 100 µM | BT-549 > 100 µM | CAKI-1 > 100 µM | HL-60 > 100 µM | MCF7 > 100 µM | NCI-H460 > 100 µM | OVCAR-5 > 100 µM | RPMI-8226 > 100 µM | RXF 393 > 100 µM | SF-268 > 100 µM | SK-MEL-5 > 100 µM | SK-OV-3 > 100 µM | TK-10 > 100 µM | U-251 > 100 µM

COc1cc(-c2coc3c(OC)c(OC4OC(COC5OC(C)C(O)C(O)C5O)C(O)C(O)C4O)c(OC)c(O)c3c2=O)cc(C)c1O (configuration not stated)
inactive: A549 23.8 µM | ACHN 21.2 µM | BT-549 13.9 µM | CAKI-1 18 µM | MCF7 12.3 µM | MDA-MB-435 16 µM | NCI-H460 23.2 µM | NCI-H522 12.7 µM | OVCAR-5 21.7 µM | RXF 393 13 µM | SF-268 19.4 µM | SK-MEL-2 23.8 µM | SK-MEL-5 12.6 µM | SK-OV-3 16.8 µM | TK-10 34.8 µM | U-251 15.5 µM | UACC-257 22.3 µM

c1ccc([P+](CCSCCSCC[P+](c2ccccc2)(c2ccccc2)c2ccccc2)(c2ccccc2)c2ccccc2)cc1
inactive: A549 > 100 µM | ACHN > 100 µM | BT-549 > 100 µM | HL-60 > 100 µM | MCF7 40.5 µM | MDA-MB-435 > 100 µM | NCI-H460 > 100 µM | OVCAR-5 > 100 µM | RXF 393 > 100 µM | SF-268 > 100 µM | SK-MEL-2 > 100 µM | SK-MEL-5 > 100 µM | SK-OV-3 > 100 µM | TK-10 > 100 µM | U-251 24.7 µM | UACC-257 > 100 µM

O=C(O)c1cc(NCc2cc(O)ccc2O)ccc1O [LAVENDUSTIN C]
inactive: A549 > 100 µM | ACHN > 100 µM | BT-549 > 100 µM | CAKI-1 > 100 µM | MCF7 > 100 µM | MDA-MB-435 27 µM | NCI-H460 > 100 µM | NCI-H522 16.2 µM | OVCAR-5 > 100 µM | RXF 393 > 100 µM | SF-268 > 100 µM | SK-MEL-2 > 100 µM | SK-MEL-5 > 100 µM | SK-OV-3 > 100 µM | TK-10 > 100 µM | U-251 > 100 µM | UACC-257 > 100 µM
